Source: PubChem BioAssay AID463204 (Broad Institute, 2010)
Active and inactive are the calls of the source.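 Rule for the calls: active = AC50 no more than ten times the top concentration tested, that is within one log above it; inconclusive = flat curve fit with activity between 30% and 70%, or invalid poor fit; inactive = AC50 beyond ten times the top tested dose.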

Tested on: S. cerevisiae Mot1-301 ts growth rescue, BacTiter-Glo ATP luminescence
Assay: growth rescue of Mot1-301 ts yeast, confirmation, SUMOylation pathway inhibitor project, whole organism, S. cerevisiae, Mot1-301 ts mutant, luminescence, dose retest (AID 463204);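 note: growth at restrictive 38.5 degrees C of Mot1-301 OY566 strain; actives raise luminescence by restoring growth of the ts mutant at high temperature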

Row | SMILES | AC50
1 | CCc1ccc(-c2nc(SCC(=O)N3CCOCC3)n[nH]2)cc1 | > 42 µM (inactive)
2 | Cn1cc(C(=O)N2CCCC(Nc3ccc(F)cc3)C2)c2ccccc21 (stereo unspecified) | > 42 µM (inactive)
3 | Cc1nnc(NC(=O)c2cccc(S(=O)(=O)N3CCCC3)c2)s1 | > 42 µM (inactive)
4 | Cc1ccccc1C(=O)NNC(=S)Nc1cccc(C(F)(F)F)c1 | > 42 µM (inactive)
5 | O=c1[nH]c(O)c(N=Nc2cc([N+](=O)[O-])ccc2O)c(=O)[nH]1 | > 42 µM (inactive)
6 | CCOCCCNCc1ccc(OCc2ccc(F)cc2)c(OC)c1 | > 42 µM (inactive)
7 | CC(C)c1ccc(-c2cc(C(=O)N3CCOCC3)c3cc(Br)ccc3n2)cc1 | > 42 µM (inactive)
8 | CCOCCCNC(=O)C(c1ccc(OC)cc1)N(Cc1ccc2c(c1)OCO2)C(=O)CNC(C)=O (stereo unspecified) | > 42 µM (inactive)
9 | O=C(Cc1ccc(F)cc1)Nc1nc(-c2ccc(F)cc2)cs1 | > 42 µM (inactive)
10 | Cc1cc(Br)ccc1NC(=O)c1cnc(N2CCN(c3ccccn3)CC2)c2ccccc12 | > 42 µM (inactive)
11 | COc1cccc(/C=C/C(=O)OCC(=O)Nc2ccc(Cl)cn2)c1 | > 42 µM (inactive)
12 | O=C(NCc1ccccc1Cl)c1ccc2c(c1)OCO2 | 30.4 µM
13 | CCOC(=O)c1c(C)[nH]c(C(=O)COC(=O)c2ccncc2)c1C | > 42 µM (inactive)
14 | N/C(=N\N=C\c1ccc(O)cc1)c1nonc1N | > 42 µM (inactive)
15 | COc1ccc(-n2c(C)cc(C(=O)CN3C(=O)NC4(CCCc5sccc54)C3=O)c2C)cc1 (stereo unspecified) | > 42 µM (inactive)
16 | COc1ccc(/C=N/NC(=O)CCC(=O)Nc2ccccc2)cc1OC | > 42 µM (inactive)
17 | Cc1cc([N+](=O)[O-])ccc1NC(=O)CSc1nccc(=O)[nH]1 | > 42 µM (inactive)
18 | O=C(O)C1C(C(=O)O)C2(Cl)C(Cl)=C(Cl)C1(Cl)C2(Cl)Cl (stereo unspecified) | > 42 µM (inactive)
19 | CCOc1ccc(OCC)c(NC(=O)C2COc3ccccc3O2)c1 (stereo unspecified) | > 42 µM (inactive)
20 | COc1ccc(C)cc1S(=O)(=O)N1CCC(C(=O)NCCc2ccccc2)CC1 | > 42 µM (inactive)
21 | Nc1cc[n+](CC(=O)Nc2ccccc2)cc1 | > 42 µM (inactive)
22 | Cc1ccc(N(C(C)C(=O)O)S(=O)(=O)c2c(C)n[nH]c2C)cc1 (stereo unspecified) | > 42 µM (inactive)
23 | O=Cc1ccccc1OCCN1CCCC1=O | > 42 µM (inactive)
24 | COc1ccc2c(c1)[C@H]1[C@H](CO2)[C@H](c2ccccc2)[C@]2(C)C(=O)Nc3cc(C)ccc3C(=O)N12 | 5.3 µM
25 | CC(=O)c1ccc(N=C2SCCCN2C(=O)C2CCCC2)cc1 | > 42 µM (inactive)
26 | O=C(C1CCCN(S(=O)(=O)c2cnc[nH]2)C1)N1CCN(c2ccc(Cl)cc2)CC1 (stereo unspecified) | > 42 µM (inactive)

Row | SMILES | AC50
27 | CCN(CC)CCNc1ncnc2c1[nH]c1ccc(OC)cc12 | > 42 µM (inactive)
28 | O=C(O)c1ccc(N=C2NC(=O)C(CO)(CO)S2)cc1 | > 42 µM (inactive)
29 | C=CCN(C(=O)CNC(=O)c1ccco1)C(C(=O)NC1CCCCC1)c1ccccc1 (stereo unspecified) | > 42 µM (inactive)
30 | O=C(O)c1ccc(S(=O)(=O)N2CCN(c3ccccn3)CC2)cc1 | > 42 µM (inactive)
31 | COc1cc(S(=O)(=O)NC2CCCC2)c(OC)cc1C | > 42 µM (inactive)
32 | CCN(CC)c1ncnc2ccc(Br)cc12 | > 42 µM (inactive)
33 | CCOc1ccc(CCN2CN(C3CCCCC3)CNC2=S)cc1OCC | > 42 µM (inactive)
34 | COc1ccc(S(=O)(=O)N2CCCOC2CNC(=O)C(=O)NCCCN2CCOCC2)cc1C (stereo unspecified) | > 42 µM (inactive)
35 | CCc1ccccc1NC(=O)N[C@@H](C)C(=O)OC | > 42 µM (inactive)
36 | COC(=O)CCC(=O)OC1(C)C(=O)C=C2C=C(C3CC3)N(Cc3ccc4c(c3)OCO4)C=C2C1=O (stereo unspecified) | > 42 µM (inactive)
37 | CCCS(=O)(=O)N1CCC(C(=O)N2CCc3ccccc3C2)CC1 | > 42 µM (inactive)
38 | O=C(Nc1ccc2c(c1)CCCN2C(=O)c1cccs1)c1cccc(F)c1 | > 42 µM (inactive)
39 | COc1ccc(-c2csc(Nc3cc(C)ccn3)n2)cc1C | > 42 µM (inactive)
40 | CC(OC(=O)c1cc(S(=O)(=O)N2CCOCC2)ccc1F)C(=O)NCc1ccc2c(c1)OCO2 (stereo unspecified) | > 42 µM (inactive)
41 | OC[C@@H](O)CCl | > 42 µM (inactive)
42 | Cc1cc(C)cc(N(CC(=O)Nc2cccc(C)n2)S(=O)(=O)c2c(C)noc2C)c1 | > 42 µM (inactive)
43 | O=S(=O)(NCC1CCCN(Cc2ccccc2O)C1)c1cccc2cccnc12 (stereo unspecified) | > 42 µM (inactive)
44 | CC(C)C(CC(=O)NCc1ccco1)c1ccco1 (stereo unspecified) | > 42 µM (inactive)
45 | COc1cc(OC)cc(OC(=O)c2ccc3c(=O)n4c(nc3c2)CCC4)c1 | > 42 µM (inactive)
46 | COc1ccccc1CNc1nc(SC)ncc1CO | > 42 µM (inactive)
47 | NNc1nc2sc3c(c2c(=O)n1-c1ccccc1)CCCC3 | > 42 µM (inactive)
48 | CCCCC(=O)N/N=C(\C)CC(=O)Nc1cc(Cl)ccc1OC | > 42 µM (inactive)
49 | CC(C)Cc1cc(CN2CCC(CO)(Cc3ccccc3)CC2)[nH]n1 | > 42 µM (inactive)
50 | CC(=O)Nc1cccc(C(=O)OCC(=O)NCc2ccc(F)cc2)c1 | > 42 µM (inactive)
51 | Cc1nc(-c2ccncc2)sc1C(=O)Nc1ccc(Br)cc1 | > 42 µM (inactive)
